In US20120028988A1, “USE OF PYRIDAZINONE COMPOUND FOR CONTROL OF HARMFUL ARTHROPOD PESTS” (SUMITOMO CHEMICAL COMPANY, LIMITED, priority 2009, published 2012):

Tested on: Plutella xylostella
Assay: whole plant or invertebrate
Assay type: in vivo
Details: 120 h, 500 ppm active ingredient, 20 mL/cup sprayed on Brassicae oleracea, second-stage larvae, 25° C., after 5 days, read-out: mortality of the insects
Experimental: (§1) The preparation of the present composition obtained by Preparation Example 14 was diluted with water so as to have a concentration of active ingredient of 500 ppm, to prepare a drug solution for test.
The drug solution for test was sprayed at a rate of 20 mL/cup on Brassicae oleracea at the 3 leaf stage planted in a polyethylene cup. After the drug solution dried, leaves and stems were cut out and placed in a 50 mL cup. 5 second-stage larvae of Plutella xylostella were released there, and the lid was closed. This cup was stored at 25° C., and the number of surviving insects was counted after 5 days, and the mortality of the insects was calculated by the following equation.
(§2) Mortality of Insects (%)=(Number of Dead Insects/Number of Test Insects)×100

Compound | mortality at 500 ppm [%]
Cc1ccc(-c2ccc(F)cc2)cc1-c1c(O)c(C)nn(C)c1=O [I-a-46, 4-[5-(4-fluorophenyl)-2-methylphenyl]-5-hydroxy-2,6-dimethyl-3(2 H)-pyridazinone] | ≥ 80
Cc1ccc(-c2ccc(Cl)cc2)cc1-c1c(O)cnn(C)c1=O [I-a-59, 4-[5-(4-chlorophenyl)-2-methylphenyl]-5-hydroxy-2-methyl-3(2H)-pyridazinone] | ≥ 80

Tested on: Blattalla germanica
Assay: Test Example 6: treated filter paper with sucrose, Blattalla germanica male adults, mortality index
Assay type: in vivo
Details: 500 ppm active ingredient, 0.7 mL on filter paper with sucrose; 2 male adults; after 6 days
Experimental: as §1
A filter paper with a diameter of 5.5 cm was placed in the bottom of a polyethylene cup, then 0.7 mL of the above drug solution for test was added dropwise on the filter paper, and 30 mg of sucrose was uniformly added as a feed. 2 male adults of Blattalla germanica were released in the polyethylene cup, and the lid was closed. The number of dead insects was calculated after 6 days.
The mortality was calculated by the following equation and was evaluated by the indexes of 4: mortality 100%, 2:50%, and 0:0%.
Mortality (%)=(Number of Dead Insects/Number of Test Insects)×100

Compound | index (mortality)
CCc1ccccc1-c1c(OC(=O)c2ccccc2)cnn(C)c1=O [I-b-1, 5-benzoyloxy-4-(2-ethylphenyl)-2-methyl-3(2H)-pyridazinone] | 4 (mortality 100%)

Tested on: Spodoptera litura
Assay: whole plant or invertebrate
Assay type: in vivo
Details: 144 h, 500 ppm active ingredient, 20 mL/cup sprayed on Brassicae oleracea, fourth-stage larvae, 25° C., after 6 days, read-out: mortality of the insects
Experimental: as §1
The drug solution for test was sprayed at a rate of 20 mL/cup on Brassicae oleracea at the 5 to 6 leaf stages planted in a polyethylene cup. After the drug solution dried, 10 fourth-stage larvae of Spodoptera litura were released. Brassicae oleracea at the 5 to 6 leaf stage planted in this polyethylene cup was covered with an another polyethylene cup (volume of 400 mL). This was stored at 25° C., and the number of surviving insects was counted after 6 days, then the mortality of the insects was calculated by the following equation.
as §2

Compound | mortality at 500 ppm [%]
Cc1ccc(-c2ccc(Cl)cc2)cc1-c1c(O)cnn(C)c1=O [I-a-59, 4-[5-(4-chlorophenyl)-2-methylphenyl]-5-hydroxy-2-methyl-3(2H)-pyridazinone] | ≥ 80

Tested on: Frankliniella occidentalis
Assay: Test Example 10: spray on cucumber, Frankliniella occidentalis larvae on cut leaves, preventive value
Assay type: in vivo
Details: 500 ppm active ingredient, 10 mL/cup sprayed on cucumber; larvae on cut first true leaves; after 7 days
Experimental: The drug solution for test was sprayed at a rate of 10 mL/cup on cucumber at the second true leaf-expansion stage planted in a polyethylene cup. After the drug solution dried, the first true leaves were cut out and placed in a polyethylene cup, then 20 larvae of Frankliniella occidentalis were released, and the lid was closed. After 7 days, the number of surviving larvae on the leaves of cucumber was investigated, and the preventive value was calculated by the following equation. Preventive Value (%)={1−(Cb×Tai)/(Cai×Tb)}×100 Here, the letters in the equation represent the following meaning. Cb: Number of Insects in Untreated Area Before Treatment Cai: Number of Insects in Untreated Area at Observation Tb: Number of Insects in Treated Area Before Treatment Tai: Number of Insects in Treated Area at Observation

Compound | preventive value [%]
Cc1ccc(-c2ccc(Cl)cc2)cc1-c1c(O)c(C)nn(C)c1=O [I-a-40] | ≥ 90

Tested on: not given
Assay: not given
Details: not given

Compound | melting point [°C]
C#Cc1cc(C)cc(C)c1-c1c(O)c(C)nn(C)c1=O [I-a-44, 4-(2-ethynyl-4,6-dimethylphenyl)-5-hydroxy-2,6-dimethyl-3(2H)-pyridazinone] | 179 to 181
Cc1ccc(Br)cc1-c1c(O)c(C)nn(C)c1=O [I-a-45, 4-(5-bromo-2-methylphenyl)-5-hydroxy-2,6-dimethyl-3(2H)-pyridazinone] | 217 to 218
CCc1cc(C)c(Br)c(CC)c1-c1c(O)c(C)nn(C)c1=O [I-a-47, 4-(3-bromo-2,6-diethyl-4-methylphenyl)-5-hydroxy-2,6-dimethyl-3(2H)-pyridazinone] | 235 to 236
CCc1cc(C)c(-c2ccc(Cl)cc2)c(CC)c1-c1c(O)c(C)nn(C)c1=O [I-a-48, 4-[3-(4-chlorophenyl)-2,6-diethyl-4-methylphenyl)-5-hydroxy-2,6-dimethyl-3(2H)-pyridazinone] | 248 to 250
CCc1cc(CC)c(-c2c(O)c(C)nn(C)c2=O)c(CC)c1Cl [I-a-49, 4-(3-chloro-2,4,6-triethylphenyl)-5-hydroxy-2,6-dimethyl-3(2H)-pyridazinone] | 225 to 226
CCc1cc(CC)c(-c2c(O)c(C)nn(C)c2=O)c(CC)c1Br [I-a-50, 4-(3-bromo-2,4,6-triethylphenyl)-5-hydroxy-2,6-dimethyl-3(2H)-pyridazinone] | 225 to 226
CCc1c(Cl)c(CC)c(-c2c(O)c(C)nn(C)c2=O)c(CC)c1Cl [I-a-71, 4-(3,5-dichloro-2,4,6-triethylphenyl)-5-hydroxy-2,6-dimethyl-3(2H)-pyridazinone] | 266 to 267
CCc1cc(CC)c(-c2c(O)c(C)nn(C)c2=O)c(CC)c1I [I-a-72, 5-hydroxy-2,6-dimethyl-4-(2,4,6-triethyl-3-iodophenyl)-3(2H)-pyridazinone] | 217 to 219
CCc1cc(C)c(F)c(CC)c1-c1c(O)c(C)nn(C)c1=O [I-a-74, 4-(2,6-diethyl-3-fluoro-4-methylphenyl)-5-hydroxy-2,6-dimethyl-3(2H)-pyridazinone] | 193 to 195
CCc1cc(C)c(Br)c(CC)c1-c1c(OC(=O)OC)c(C)nn(C)c1=O [I-b-50, 4-(3-bromo-2,6-diethyl-4-methylphenyl)-5-methoxycarbonyloxy-2,6-dimethyl-3(2H)-pyridazinone] | 113 to 115
